Values of other authors in patent publication EP0358033B1, “Radical polymerizable compositions and their use” (Henkel Kommanditgesellschaft auf Aktien, priority 1988, dated 1990).

Details: free acid

| SMILES | pKS-Wert |
| --- | --- |
| O=C(O)C(Cl)Cl [Dichloressigsäure] | ~1,3 |
| CC(=O)O [Essigsäure] | ~4,76 |
| O=C(O)C(Cl)(Cl)Cl [Trichloressigsäure] | ~0,6 |
